Results: patent publication US20250186600A1, “EXCIPIENT COMPOUNDS FOR PROTEIN FORMULATIONS” (Comera Life Sciences, Inc., priority 2020, published 2025)
Values joined by “and” are separate entries in the source; they are usually repeats but may differ in a detail not shown here. Equal entries are not always repeated.

Assays:
[1] = system: bovine gamma globulin (BGG); assay: Normalized viscosity of BGG with caffeine and a secondary excipient (Example 40); type: physicochemical; settings: BGG about 280 mg/mL, 20 mM histidine pH 6, 25° C.
BGG = settings: Table 15; versus 130.6 cP with no excipient
Description: Each buffer solution contained different excipient or combination of excipients as described in the table below (Table 15). The viscosity of the solutions was measured as described in previous examples.

bevacizumab (AVASTIN®) = assay: Viscosity of AVASTIN with caffeine, microVisc (Example 39); type: physicochemical; settings: for % Viscosity Reduction from Excipient: 10 mg/mL caffeine vs no excipient; for Viscosity with 10 mg/mL added caffeine excipient: 10 mg/mL caffeine, 25 mM histidine HCl
Description: Viscosity was measured by RheoSense microVisc and concentration was determined by absorbance at 280 nm (extinction coefficient, 1.605 mL/mg). […].

[2] = molecular target: PEGylated lysozyme with multiple PEG chains per lysozyme molecule (Gallus gallus, UniProt P00698); settings: Table 10
PEGylated lysozyme with multiple PEG chains per lysozyme molecule, sequence (P00698 19-147): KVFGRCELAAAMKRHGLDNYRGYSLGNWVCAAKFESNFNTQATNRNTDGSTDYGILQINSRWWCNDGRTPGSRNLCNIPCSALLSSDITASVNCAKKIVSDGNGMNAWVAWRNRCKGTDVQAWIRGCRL
Description: The solution was mixed by gently shaking and the viscosity was measured by a RheoSense microVisc equipped with an A10 channel (100 micron depth) at a shear rate of 500 s-1. The viscometer measurements were completed at ambient temperature.

[3] = molecular target: T1, PEGylated BSA with 1 PEG chain per BSA molecule (Bos taurus, UniProt P02769); assay: Viscosity of PEGylated BSA with 1 PEG chain per BSA molecule (Example 16); type: physicochemical; settings: Table 8; versus 228.6 cP with no excipient
T1 construct: purchased Aldrich A7906
T1 sequence (P02769 25-607): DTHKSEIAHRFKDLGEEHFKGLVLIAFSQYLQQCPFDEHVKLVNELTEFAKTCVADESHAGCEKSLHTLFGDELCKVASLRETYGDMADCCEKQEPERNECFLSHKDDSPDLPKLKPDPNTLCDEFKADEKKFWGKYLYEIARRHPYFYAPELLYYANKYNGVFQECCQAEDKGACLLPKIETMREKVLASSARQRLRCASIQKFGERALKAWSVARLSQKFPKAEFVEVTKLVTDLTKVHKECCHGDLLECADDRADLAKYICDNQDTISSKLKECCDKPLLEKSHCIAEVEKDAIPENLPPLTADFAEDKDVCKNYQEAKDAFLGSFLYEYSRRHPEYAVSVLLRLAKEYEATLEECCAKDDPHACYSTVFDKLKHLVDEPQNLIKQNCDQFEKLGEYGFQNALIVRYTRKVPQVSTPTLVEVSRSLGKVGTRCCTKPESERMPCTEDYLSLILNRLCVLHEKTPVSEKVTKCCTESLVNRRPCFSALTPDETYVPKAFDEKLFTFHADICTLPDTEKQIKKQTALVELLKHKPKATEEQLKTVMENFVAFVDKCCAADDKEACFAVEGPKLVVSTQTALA
Description: To a beaker was added 200 mL of a phosphate buffered saline (Aldrich Cat. #P4417) and 4 g of BSA (Aldrich Cat. #A7906) and mixed with a magnetic bar. Next 400 mg of methoxy polyethylene glycol maleimide, MW=5,000, (Aldrich Cat. #63187) was added. The reaction mixture was allowed to react overnight at room temperature. The following day, 20 drops of HCl 0.1 M were added to stop the reaction. […] The reaction mixture was placed in an Amicon centrifuge tube with a molecular weight cutoff (MWCO) of 30 kDa and concentrated to a few milliliters. Next the sample was diluted 20 times with a histidine buffer, 50 mM at a pH of approximately 6, followed by concentrating until a high viscosity fluid was obtained.
The viscometer measurements were completed at ambient temperature.

omalizumab = assay: DLS viscosity of concentrated omalizumab with nicotinamide mononucleotide and itaconic acid (Example 52); type: physicochemical; settings: 20 mM His HCl pH 6, excipient stock 1 M or solubility limit
Description: These substances were used as excipients in the following experiment.
The resulting concentrated formulation was analyzed by A280 for protein concentration by making serial dilutions of the concentrated formulation in 20 mM His HCl, loading 100 microliters of each dilution into a UV clear 96 half-well microplate (Greiner Bio-One, Austria), and measuring absorbance at a wavelength of 280 nm with a Synergy HT plate reader (BioTek, Winooski, VT). The blanked, path-length-corrected A280 measurement for each sample was then divided by the respective extinction coefficient and multiplied by the dilution factor to determine the protein concentration. […] The concentrated protein formulation was then combined with the stock excipient solution or a control at a ratio of 9 parts protein formulation: 1 part excipient solution or buffer (for the control), and aliquots were added to the wells of a 384 well microplate (Aurora Microplates, Whitefish, MT). […] After the microplate was shaken, 2 microliters of a 5-fold dilution of polyethylene glycol surface-modified gold nanoparticles having a diameter of 100 nm (nanoComposix, San Diego, CA) in 20 mM His HCl were added to each sample well. […]

[4] = system: bovine gamma globulin (BGG); assay: Viscosity of 280 mg/mL BGG formulations with excipient compounds, cone and plate viscometer (Examples 1, 2, 4-6); type: physicochemical

N=C(N)NCCC[C@H](N)C(=O)O [Arginine, reference compound]
Normalized Viscosity ([1]; Excipient A caffeine 15 mg/mL + Excipient B 20 mg/mL): 0.63
Viscosity Reduction (%) (BGG): 41%

Cn1c(=O)c2c(ncn2C)n(C)c1=O [Caffeine]
Normalized Viscosity ([1]; Excipient A caffeine 15 mg/mL, no Excipient B): 0.77
Viscosity Reduction (%) (BGG): 33%
% Viscosity Reduction from Excipient (bevacizumab (AVASTIN®); AVASTIN 190 mg/mL): 36%
Viscosity with 10 mg/mL added caffeine excipient (bevacizumab (AVASTIN®); AVASTIN 190 mg/mL): 13 cP
% Viscosity Reduction from Excipient (bevacizumab (AVASTIN®); AVASTIN 213 mg/mL): 73%
Viscosity with 10 mg/mL added caffeine excipient (bevacizumab (AVASTIN®); AVASTIN 213 mg/mL): 22 cP
% Viscosity Reduction from Excipient (bevacizumab (AVASTIN®); AVASTIN 266 mg/mL): 62%
Viscosity with 10 mg/mL added caffeine excipient (bevacizumab (AVASTIN®); AVASTIN 266 mg/mL): 113 cP

CC(=O)[O-].[K+] [K acetate, potassium acetate]
Viscosity (cP) ([2]; PEGylated lysozyme, 500 s-1, ambient temperature, excipient 20 mg/mL): 22.6 cP
Viscosity Reduction ([2]; versus 24.6 cP with no excipient): 8%
Viscosity Reduction [3]: 60%

NC(=O)c1ccc[n+]([C@@H]2O[C@H](COP(=O)([O-])O)[C@@H](O)[C@H]2O)c1 [Nicotinamide mononucleotide]
DLS Viscosity, Replicate 1 (omalizumab): 33.6 cP
DLS Viscosity, Replicate 2 (omalizumab): 22.2 cP

O=C([O-])c1ccccc1O.[Na+] [Sodium salicylate]
Viscosity Reduction [4]: 28% and 34%
Viscosity (cP) ([4]; pH 6): 57 cP and 52 cP

Alpha-Cyclodextrin sulfated Na salt
Viscosity Reduction [3]: 34%
